Measurements taken from ChEMBL document CHEMBL4680330, “Soloxolone methyl, as a 18βH-glycyrrhetinic acid derivate, may result in endoplasmic reticulum stress to induce apoptosis in breast cancer cells” (Bioorg Med Chem, 2021).
Active and inactive are the calls of the source. No cut-off for these calls is given here.

Tests used:
MCF7 [1] = experiment: Induction of cell death in human MCF7 cells assessed as downregulation of RIPK gene at 10 uM incubated for 48 hrs by RT-PCR analysis; type: functional, cell-based
[2] = Induction of caspase 3/7 activity in human MCF7 cells assessed as induction of apoptosis by measuring necrotic cells at 10 uM incubated for 24 hrs by flow cytometry analysis (reference value: 3.30 %); type: functional
[3] = Induction of caspase 3/7 activity in human MDA-MB-231 cells assessed as induction of apoptosis by measuring viable cells at 10 uM incubated for 24 hrs by flow cytometry analysis (reference value: 97.25 %); type: functional
MDA-MB-231 [4] = experiment: Induction of apoptosis in human MDA-MB-231 cells assessed as PARP level at 10 uM incubated for 24 hrs by Western blot analysis (reference value: 1); type: functional
MCF7 [5] = experiment: Induction of apoptosis in human MCF7 cells assessed as PARP level at 10 uM incubated for 24 hrs by Western blot analysis (reference value: 1); type: functional
MCF7 [6] = experiment: Induction of apoptosis in human MCF7 cells assessed as cleaved PARP level at 10 uM incubated for 24 hrs by Western blot analysis (reference value: 1); type: functional
MCF7 [7] = experiment: Induction of apoptosis in human MCF7 cells assessed as pro-caspase 3 level at 10 uM incubated for 24 hrs by Western blot analysis (reference value: 1); type: functional
MCF7 [8] = experiment: Induction of ROS production in human MCF7 cells at 10 uM incubated for 24 hrs by flow cytometry analysis; type: functional, cell-based
MDA-MB-231 [9] = experiment: Induction of cell death in human MDA-MB-231 cells assessed as upregulation of BECN1 gene at 10 uM incubated for 48 hrs by RT-PCR analysis; type: functional, cell-based
MCF7 [10] = experiment: Induction of cell death in human MCF7 cells assessed as upregulation of TNFRSF10B gene at 10 uM incubated for 24 hrs by RT-PCR analysis; type: functional, cell-based
[11] = test system: Epidermoid carcinoma cell line; experiment: Cytotoxicity against human Epidermoid carcinoma cell line; type: functional, cell-based
MCF7 [12] = experiment: Induction of cell death in human MCF7 cells assessed as upregulation of BECN1 gene at 10 uM measured after 48 hrs by RT-PCR analysis; type: functional, cell-based
MCF7 [13] = experiment: Induction of apoptosis in human MCF7 cells assessed as viable cells at 10 uM incubated for 24 hrs by annexin V-FITC and PI staining based flow cytometry analysis (reference value: 69.60 %); type: functional; settings: read-out: Activity
MDA-MB-231 [14] = experiment: Induction of cell death in human MDA-MB-231 cells assessed as upregulation of HRK gene at 10 uM incubated for 48 hrs by RT-PCR analysis; type: functional, cell-based
MCF7 [15] = experiment: Induction of apoptosis in human MCF7 cells assessed as early apoptotic cells at 10 uM incubated for 24 hrs by annexin V-FITC and PI staining based flow cytometry analysis (reference value: 0.20 %); type: functional
MCF7 [16] = experiment: Induction of apoptosis in human MCF7 cells assessed as cleaved pro-caspase 3 level at 10 uM incubated for 24 hrs by Western blot analysis (reference value: 1); type: functional
MDA-MB-231 [17] = experiment: Induction of late apoptosis in human MDA-MB-231 cells assessed as increase in rate of formation of pycnotic nuclei at 10 uM by Hoechst 33342 and PI staining based fluorescence microscopic analysis; type: functional, cell-based; settings: TDE = time-dependent effect
MDA-MB-231 [18] = experiment: Induction of cell death in human MDA-MB-231 cells assessed as downregulation of RIPK gene at 10 uM measured after 48 hrs by RT-PCR analysis; type: functional, cell-based
MCF7 [19] = experiment: Induction of endoplasmic reticulum stress in human MCF7 cells assessed as BIP expression at 10 uM incubated for 24 hrs by Western blot analysis (reference value: 1); type: functional
MCF7 [20] = experiment: Induction of apoptosis in human MCF7 cells assessed as cleaved pro-caspase 8 level at 10 uM incubated for 24 hrs by Western blot analysis (reference value: 1); type: functional
MDA-MB-231 [21] = experiment: Induction of cell death in human MDA-MB-231 cells assessed as downregulation of PARP gene at 10 uM measured after 48 hrs by RT-PCR analysis; type: functional, cell-based
MCF7 [22] = experiment: Induction of apoptosis in human MCF7 cells at 10 uM by annexin V-FITC and PI staining based flow cytometry analysis; type: functional, cell-based; settings: TDE = time-dependent effect
MCF7 [23] = experiment: Induction of early apoptosis in human MCF7 cells assessed as increase in PI negativity at 10 uM incubated for 24 hrs by Hoechst 33342 and PI staining based fluorescence microscopic analysis; type: functional, cell-based
MDA-MB-231 [24] = experiment: Induction of early apoptosis in human MDA-MB-231 cells assessed as increase in PI negativity at 10 uM incubated for 24 hrs by Hoechst 33342 and PI staining based fluorescence microscopic analysis; type: functional, cell-based
MDA-MB-231 [25] = experiment: Cytotoxicity against human MDA-MB-231 cells assessed as reduction in cell viability incubated for 24 hrs by ATP based luminometry; type: functional; settings: MDA-MB-231, 24 h
MDA-MB-231 [26] = experiment: Induction of cell death in human MDA-MB-231 cells assessed as downregulation of MLKL gene at 10 uM measured after 48 hrs by RT-PCR analysis; type: functional, cell-based
MDA-MB-231 [27] = experiment: Induction of apoptosis in human MDA-MB-231 cells assessed as pro-caspase 3 level at 10 uM incubated for 24 hrs by Western blot analysis (reference value: 1); type: functional
MDA-MB-231 [28] = experiment: Induction of apoptosis in human MDA-MB-231 cells assessed as cleaved pro-caspase 8 level at 10 uM incubated for 24 hrs by Western blot analysis (reference value: 1); type: functional
MCF7 [29] = experiment: Cytotoxicity against human MCF7 cells assessed as reduction in cell viability incubated for 24 hrs by ATP based luminometry; type: functional; settings: MCF7, 24 h
MCF7 [30] = experiment: Induction of cell death in human MCF7 cells assessed as downregulation of MLKL gene at 10 uM incubated for 48 hrs by RT-PCR analysis; type: functional, cell-based
MDA-MB-231 [31] = experiment: Induction of apoptosis in human MDA-MB-231 cells assessed as early apoptotic cells at 10 uM incubated for 24 hrs by annexin V-FITC and PI staining based flow cytometry analysis (reference value: 0.70 %); type: functional
MCF7 [32] = experiment: Induction of early apoptosis in human MCF7 cells assessed as increase in pycnotic nuclei at 10 uM incubated for 24 hrs by Hoechst 33342 and PI staining based fluorescence microscopic analysis; type: functional, cell-based

With `COC(=O)[C@@]1(C)CC[C@]2(C)CC[C@]3(C)[C@H](C(=O)C=C4[C@@]5(C)C=C(C#N)C(=O)C(C)(C)[C@@H]5CC[C@]43C)[C@@H]2C1` the Activity (MCF7 [1]) was “Active”, the Activity [2] was 14.7% and the Activity [3] was 10.35%. The “fold change (FC)” value (MDA-MB-231 [4]) was 0.6, the “fold change (FC)” value (MCF7 [5]) was 0.3 and the “fold change (FC)” value (MCF7 [6]) was 4.5. For the same compound, the “fold change (FC)” value (MCF7 [7]) was 1.7, the Activity (MCF7 [8]) was “inactive” and the Activity (MDA-MB-231 [9]) was “Active”. The Activity (MCF7 [10]) was “Active”, the IC50 [11] was at least 0.3 µM and the Activity (MCF7 [12]) was “inactive”. The viability at 10 µM (MCF7 [13]) was 70.7%, the Activity (MDA-MB-231 [14]) was “Active” and the Activity (MCF7 [15]) was 0.2%. For the same compound, the “fold change (FC)” value (MCF7 [16]) was 1.2, the Activity (MDA-MB-231 [17]) was “Tde” and the Activity (MDA-MB-231 [18]) was “inactive”. For the same compound, the “fold change (FC)” value (MCF7 [19]) was 0.8, the “fold change (FC)” value (MCF7 [20]) was 1.01 and the Activity (MDA-MB-231 [21]) was “inactive”. For the same compound, the Activity (MCF7 [22]) was “Tde”, the Activity (MCF7 [23]) was “Active” and the Activity (MDA-MB-231 [24]) was “Active”. For the same compound, the IC50 (MDA-MB-231 [25]) was 6.83 µM, the Activity (MDA-MB-231 [26]) was “inactive” and the “fold change (FC)” value (MDA-MB-231 [27]) was 1.3. For the same compound, the “fold change (FC)” value (MDA-MB-231 [28]) was 2.4, the IC50 (MCF7 [29]) was 11.7 µM and the Activity (MCF7 [30]) was “Active”. For the same compound, the Activity (MDA-MB-231 [31]) was 2.95% and the Activity (MCF7 [32]) was “Active”.
